Results published in PMC11571215, “Optimization of Antiproliferative Properties of Triimine Copper(II) Complexes” (Journal of Medicinal Chemistry, 2024).
Read-outs that look alike come from different tables or passages of the source. Values belong to the molecule of their own block, whether it stands above or below them.

Assays:
[1] = test system: HCT116-DoxR cells (doxorubicin resistant colorectal carcinoma); design: method as in PMID 37311060; details: previously determined; read-out: IC50 for the HCT116-DoxR cell line; cited from earlier work
[2] = test system: HCT116-DoxR cells (doxorubicin resistant colorectal carcinoma); test: MTS cell viability assay, HCT116-DoxR 2D; type: cell-based, human; details: for IC50: 48 h of exposure
Protocol: (§1) The antiproliferative effect of the Cu(II) complexes in tumor and healthy cell lines was assessed through the MTS assay, a colorimetric method that is widely used to evaluate cellular viability, specifically mitochondrial viability.[53],[54] Cellular viability was determined after 48 h exposure to a concentration range (0.1–50 μM) of Cu(II) complexes in three tumor cell lines. […] Additionally, the viability of healthy primary dermal fibroblasts was performed as a comparison of the complexes’ antiproliferative effects in normal cells.
(§2) Cellular viability assays were performed using HCT116, HCT116-DoxR, and A2780 cancer cell lines as well as normal human primary fibroblasts. Cells were seeded at a density of 0.75 × 10^5 cells/mL in 96-well plates and incubated at 37 °C with 5% (v/v) CO2 for 24 h. After this incubation period, the copper complexes were accurately weighed and immediately dissolved in 100% (v/v) dimethyl sulfoxide (DMSO). Subsequently, the complexes were diluted to the final concentration using a cell culture medium. The culture medium in each well was replaced with fresh medium containing varying concentrations of the complexes (ranging from 0.01 to 50 μM). Negative controls contained culture medium with 0.1% (v/v) DMSO, and positive controls contained 0.4 μM Dox.
(§3) After an additional 48 h of incubation under the same conditions, cellular viability was assessed using the CellTiter 96 Aqueous One Solution Cell Proliferation Assay kit (Promega, Madison, USA). Metabolically active cells contain mitochondrial dehydrogenases that can reduce 3-(4,5-dimethylthiazol-2-yl)-5-(3-carboxymethoxyphenyl)-2-(4-sulfophenyl)-2H-tetrazolium, the inner salt (MTS) to formazan. The absorbance of formazan, measured at 490 nm in a microplate reader (Tecan Infinite M200, Tecan, Männedorf, Switzerland), is directly proportional to the number of viable cells.[104]
(§4) The cell viability versus concentration graphics were analyzed using Prism 8 software (GraphPad) to determine the half-maximal inhibitory concentration (IC50) of each complex for the respective cell line. Additionally, the selective index (SI) for each complex was calculated by dividing the IC50 of human fibroblasts by the IC50 values of the tested cancer cell lines.

[3] = test system: HCT116 cells (colorectal carcinoma); test: MTS cell viability assay, HCT116 2D; type: cell-based, human
Protocol: as §1, §2, §3, §4

[4] = test system: A2780 cells (ovarian carcinoma); test: MTS cell viability assay, A2780; type: cell-based, human
Protocol: as §1, §2, §3, §4

[5] = test system: normal human primary dermal fibroblasts; test: MTS cell viability assay, normal fibroblasts; type: cell-based; details: 48 h of exposure
Protocol: as §1, §2
After an additional 48 h of incubation under the same conditions, cellular viability was assessed using the CellTiter 96 Aqueous One Solution Cell Proliferation Assay kit (Promega, Madison, USA). […] The absorbance of formazan, measured at 490 nm in a microplate reader (Tecan Infinite M200, Tecan, Männedorf, Switzerland), is directly proportional to the number of viable cells.[104]
as §4

[6] = test system: HCT116 cells (colorectal carcinoma); design: method as in PMID 29688241; details: previously published complex, cited from earlier work
[7] = test system: A2780 cells (ovarian carcinoma); design: method as in PMID 29688241; details: previously published complex, cited from earlier work
[8] = test system: normal human primary dermal fibroblasts; design: method as in PMID 29688241; details: 48 h; previously published complex; cited from earlier work
HCT116-DoxR cells = test: Autophagy induction (CYTO-ID green, flow cytometry); type: cell-based, human; details: 48 h; complexes at IC50, Dox 6 μM, Cis 5 μM, rapamycin 1500 nM
Description: Furthermore, previous studies have shown that complexes containing terpyridine derivatives have the ability to trigger both apoptosis and autophagy cell death mechanisms in cancer cells simultaneously.[38] This convergence of death pathways may arise from an adaptive response of the heterogeneous tumor cell population.[38] In this context, understanding the mechanism by which cells lose viability in the presence of the two Cu(II) complexes with the simultaneous induction of apoptosis and autophagy becomes crucial. Autophagy is a highly conserved catabolic process crucial for maintaining cellular homeostasis but is also associated with type II programmed cell death.[75] It involves intracellular degradation through autophagolysosomes responsible for breaking down luminal content and enabling recycling of cellular components.[76],[77] The assessment of the complexes’ ability to induce autophagy was conducted using flow cytometry, employing the CYTO-ID green detection reagent. This probe emits green fluorescence, marking the autophagic vacuoles within the cell. Higher fluorescence indicates a greater proportion of autophagolysosomes.[78] Three positive controls were used: Dox, Cis, and rapamycin (1500 nM), whose concentration was previously optimized for the HCT116-DoxR cell line in the laboratory.[64] Rapamycin is known to induce autophagy through its mechanistic target, mTOR.
Cell death via autophagy was evaluated using the Autophagy Assay Kit (ab139484; Abcam, Cambridge, United Kingdom), according to the manufacturers’ instructions. HCT116-DoxR cells were seeded at a density of 1 × 10^5 cells/mL in 6-well plates for 24 h, under the same conditions described before. After this incubation period, the culture medium was replaced with a fresh medium containing the copper complexes under evaluation at their IC50 concentration. A 0.1% (v/v) DMSO solution was used as the negative (vehicle) control, and 6 μM Dox and 5 μM Cis were used as positive controls. The cells were incubated again for 48 h. Rapamycin (1500 nM) was also added as a positive control, and it was added 18 h before the end of the 48 h incubation. After this period, the supernatant was discarded, and each well was washed with PBS 1×. Subsequently, cells were detached using TrypLE Express and washed with phenol red-free DMEM medium containing 5% (v/v) FBS. Cells were incubated with Green Stain Solution in phenol red-free DMEM medium containing 5% (v/v) FBS for 30 min at RT. After this period, the samples were washed and then resuspended in Assay Buffer 1×. The samples were analyzed using an Attune Acoustic Focusing Flow Cytometer (Life Technologies, Carlsbad, USA), and the results were analyzed via the Attune Cytometric software.

[9] = free ligands, at least two independent assays, read-out: IC50 of ligands HCT116-DoxR
[10] = 48 h of exposure, MTS, relative IC50, mean + SEM

Compound: CC(C)(C)OO [TBHP, Tert-butyl hydroperoxide]
IC50 [1]: 42000 nM

IC50 [2, 9]: ~180 nM
Compound: c1ccc(-c2cc(-c3cccc4ccccc34)cc(-c3ccccn3)n2)nc1 [L1a]

IC50 [2, 9]: ~14600 nM
Compound: COc1ccc2cc(-c3cc(-c4nccs4)nc(-c4nccs4)c3)ccc2c1 [L2d]

IC50 [3, 10]: 360 ± 40 nM
IC50 ([2]; MTS, relative IC50, mean + SEM, read-out: IC50 HCT116-DoxR (2D)): 310 ± 10 nM
IC50 [4, 10]: 480 ± 80 nM
Compound: COc1ccc2cc(-c3cc4[n+]5c(c3)-c3cccc[n+]3[Cu-3]5([Cl])([Cl])[n+]3ccccc3-4)ccc2c1 [Cu1d]
SI HCT116 ([3]; ratio IC50 fibroblasts / IC50 HCT116): 17.8
SI HCT116-DoxR ([2]; ratio IC50 fibroblasts / IC50 HCT116-DoxR): 20.7
SI A2780 ([4]; ratio IC50 fibroblasts / IC50 A2780): 13.4
IC50 [5]: 6420 ± 500 nM

IC50 [2, 9]: > 50000 nM
Compound: c1ccc2cc(-c3cc(-c4nccs4)nc(-c4nccs4)c3)ccc2c1 [L2b]

IC50 [2, 9]: 200 ± 50 nM
Compound: COc1ccc2cc(-c3cc(-c4ccccn4)nc(-c4ccccn4)c3)ccc2c1 [L1d]

Compound: COc1ccc(-c2cc(-c3ccccn3)nc(-c3ccccn3)c2)c2ccccc12.[Cl][Cu][Cl] [Cu1c]
IC50 ([6]; 48 h): 400 ± 60 nM
SI HCT116 ([6]; IC50 fibroblasts / IC50 HCT116): 82
IC50 ([7]; 48 h): 950 ± 50 nM
SI A2780 ([7]; IC50 fibroblasts / IC50 A2780): 34.5
IC50 [8]: 32780 ± 60 nM

IC50 [2, 9]: ~11500 nM
Compound: COc1ccc(-c2cc(-c3nccs3)nc(-c3nccs3)c2)c2ccccc12 [L2c]

IC50 [2, 9]: 240 ± 400 nM
Compound: c1ccc(-c2cc(-c3ccc4ccccc4c3)cc(-c3ccccn3)n2)nc1 [L1b]

IC50 [2, 9]: > 50000 nM
Compound: c1ccc2c(-c3cc(-c4nccs4)nc(-c4nccs4)c3)cccc2c1 [L2a]

Compound: CO[C@H]1C[C@@H]2CC[C@@H](C)[C@@](O)(O2)C(=O)C(=O)N2CCCC[C@H]2C(=O)O[C@H]([C@H](C)C[C@@H]2CC[C@@H](O)[C@H](OC)C2)CC(=O)[C@H](C)/C=C(\C)[C@@H](O)[C@@H](OC)C(=O)[C@H](C)C[C@H](C)/C=C/C=C/C=C/1C [rapamycin, Rapamycin]
increase in autophagic vesicles compared to 0.1% DMSO control (HCT116-DoxR cells): increase in green fluorescence intensity
